Source: US20240083853A1, “HSD17B13 INHIBITORS AND USES THEREOF” (FL2022-001, Inc., priority 2020, published 2024)

Target: T1, Recombinant human HSD17B13 enzyme (Homo sapiens, UniProt Q7Z5P4)
T1 sequence (Q7Z5P4 20-300): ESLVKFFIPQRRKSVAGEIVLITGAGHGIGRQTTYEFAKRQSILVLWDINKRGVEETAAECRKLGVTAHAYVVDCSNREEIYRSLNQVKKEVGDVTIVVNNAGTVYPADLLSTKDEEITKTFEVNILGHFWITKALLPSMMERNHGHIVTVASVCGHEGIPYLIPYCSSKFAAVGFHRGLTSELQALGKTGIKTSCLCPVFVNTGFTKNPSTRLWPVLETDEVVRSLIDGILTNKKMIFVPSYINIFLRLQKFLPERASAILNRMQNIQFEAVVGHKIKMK
Assay: HSD17b13 NAD(P)H-Glo biochemical assay
Details: 50 uM estradiol, 1 mM NAD+, NAD(P)H-Glo luminescence; read-out: HSD17β13 IC50
Outline: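 Luminescent NAD(P)H-Glo read-out, taken after 1 hour at RT, measured cofactor reduction. Substrate and cofactor were estradiol at 50 uM and NAD+ at 1 mM final, reacted with the recombinant human enzyme for 3 hours at 37° C in 20 mM Tris pH7.4, 0.002% Tween-20, 0.02% BSA. Compound was pre-incubated with enzyme for 20 minutes at RT.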

Row | SMILES | IC50
1 | Oc1cc2c(nnn2-c2ccc(N3CC4(CCOCC4)C3)cc2)c(F)c1F [Compound 40.3, 1-(4-(7-oxa-2-azaspiro[3.5]nonan-2-yl)phenyl)-4,5-difluoro-1H-benzo[d][1,2,3]triazol-6-ol] | 100 to 1000 nM
2 | Oc1cc2c(nnn2-c2ccc(N3CC4(CCOCC4)C3)cc2)c(C(F)(F)F)c1F [Compound 41, 1-(4-(7-Oxa-2-azaspiro[3.5]nonan-2-yl)phenyl)-5-fluoro-4-(trifluoromethyl)-1H-benzo[d][1,2,3]triazol-6-ol] | 100 to 1000 nM
3 | CC1(C)CCN(c2ncc(-n3nnc4cc(F)c(O)c(F)c43)cn2)CC1 [Compound 42, 1-(2-(4,4-Dimethylpiperidin-1-yl)pyrimidin-5-yl)-5,7-difluoro-1H-benzo[d][1,2,3]triazol-6-ol] | < 100 nM
4 | Oc1c(F)cc2nnn(-c3cnc(N4CC5(CCOCC5)C4)nc3)c2c1F [Compound 42.1, 1-(2-(7-Oxa-2-azaspiro[3.5]nonan-2-yl)pyrimidin-5-yl)-5,7-difluoro-1H-benzo[d][1,2,3]triazol-6-ol] | 1000 to 30000 nM

The remaining lines, values ahead:

Row | IC50 | SMILES
5 | < 100 nM | CC1(C)CCN(c2ccc(-n3nnc4c(Cl)c(F)c(O)cc43)cc2)CC1 [Compound 40.1, 4-Chloro-1-(4-(4,4-dimethylpiperidin-1-yl)phenyl)-5-fluoro-1H-benzo[d][1,2,3]triazol-6-ol]
6 | 100 to 1000 nM | CC1(C)CCN(c2ccc(-n3nnc4c(F)c(F)c(O)cc43)cc2)CC1 [Compound 40.2, 1-(4-(4,4-Dimethylpiperidin-1-yl)phenyl)-4,5-difluoro-1H-benzo[d][1,2,3]triazol-6-ol]
7 | 100 to 1000 nM | CC1(C)CCN(c2ccc(-n3nnc4c(C(F)(F)F)c(F)c(O)cc43)cc2)CC1 [Compound 41.1, 1-(4-(4,4-Dimethylpiperidin-1-yl)phenyl)-5-fluoro-4-(trifluoromethyl)-1H-benzo[d][1,2,3]triazol-6-ol]
